Measured values reported in patent US20260130933A1, “PHARMACEUTICAL COMPOSITION FOR PREVENTION OR TREATMENT OF NEPHROPATHY AND/OR DIABETES MELLITUS, COMPRISING ENAVOGLIFLOZIN” (DAEWOONG PHARMACEUTICAL CO., LTD., priority 2022, published 2026).
Values joined by “and” are separate entries in the source; they are usually repeats but may differ in a detail not shown here. Identical values can stand only once.

Experiment: Example 2: phase 3 trial, enavogliflozin 0.3 mg vs dapagliflozin 10 mg once a day for 24 weeks added to metformin in patients with type 2 diabetes (same efficacy, exploratory and safety endpoints)
Format: in vivo, human
Description: Subjects who met the inclusion/exclusion criteria were administered a placebo of the clinical trial drug under single-blind (subject blinding) conditions during a 2-week run-in period while continuing to receive metformin. […] The randomized subjects were administered two tablets of the clinical trial drug for each administration group once a day, and then visited the institution at weeks 6, 12, 18, and 24 during the 24-week administration period to conduct efficacy and safety evaluations.
• 1. Change in HbA1c at week 24 after administration of clinical trial drug compared to Visit 2 (randomization)
• 1. Change in HbA1c at each time point of weeks 6, 12, and 18 after administration of clinical trial drug compared to Visit 2 (randomization) • 2. Change in FPG at each time point of weeks 6, 12, 18, and 24 after administration of clinical trial drug compared to Visit 2 (randomization) • 3. Proportion of subjects achieving HbA1c<7% at each time point of weeks 6, 12, 18, and 24 after administration of clinical trial drug • 4. Proportion of subjects achieving HbA1c<6.5% at each time point of weeks 6, 12, 18, and 24 after administration of clinical trial drug • 5. Proportion of subjects achieving therapeutic response (HbA1c change (HbA1c at Visit 2-HbA1c at each evaluation time point)>0.5% or HbA1c<7% at each evaluation time point compared to Visit 2 (randomization)) at each time point of weeks 6, 12, 18 and 24 after administration of clinical trial drug
• 1. Change in fasting c-peptide at each time point of weeks 6, 12, 18, and 24 after administration of clinical trial drug compared to Visit 2 (randomization) • 2. Change in body weight at each time point of weeks 6, 12, 18, and 24 after administration of clinical trial drug compared to Visit 2 (randomization) • 3. Change in fasting lipid concentration (total cholesterol, LDL-C, HDL-C, and triglycerides) at each time point of weeks 6, 12, 18, and 24 after administration of clinical trial drug compared to Visit 2 (randomization) • 4. Changes in systolic or diastolic blood pressure at each time point of weeks 6, 12, 18, and 24 after administration of clinical trial drug compared to Visit 2 (randomization) • 5. Changes in β-cell function and insulin resistance measured by HOMA-β and HOMA-IR at each time point of weeks 6, 12, 18, and 24 after administration of clinical trial drug compared to Visit 2 (randomization) • 6. Changes in renal function-related indicators (UACR, UGCR) measured by UACR at each time point of weeks 6, 12, 18, and 24 after administration of clinical trial drug compared to Visit 2 (randomization) • 7. Changes in obesity-related indicators (adiponectin, leptin) at each time point of weeks 6, 12, 18, and 24 after administration of clinical trial drug compared to Visit 2 (randomization)

[1] = week 12, per-protocol set, enavogliflozin 0.3 mg, dapagliflozin 10 mg
[2] = week 18, listed as enavogliflozin
[3] = week 18, modified per-protocol set 1, enavogliflozin 0.3 mg, dapagliflozin 10 mg
[4] = week 18, per-protocol set, enavogliflozin 0.3 mg vs dapagliflozin 10 mg
[5] = week 18, per-protocol set, enavogliflozin 0.3 mg, dapagliflozin 10 mg

OC[C@H]1O[C@@H](c2cc(Cc3ccc(C4CC4)cc3)c(Cl)c3c2CCO3)[C@H](O)[C@@H](O)[C@@H]1O [Enavogliflozin, (2S,3R,4R,5S,6R)-2-(7-chloro-6 (4-cyclopropylbenzyl)-2,3-dihydrobenzofuran-4-yl)-6-(hydroxymethyl)tetrahydro-2H-pyran-3,4,5-triol]
FPG, Median [1]: 115.50 mg/dL
HbA1c, Mean (SD) [1]: 6.97%
HbA1c, Median [1]: 6.83%
Subjects achieving HbA1c target of <6.5%, (%) [1]: (15.96) %
Subjects achieving therapeutic glycemic response, (%) [1]: (88.30) %
body weight, Mean (SD) [1]: 67.44(11.05) kg
body weight, Median [1]: 65.70 kg
fasting c-peptide, Mean (SD) [1]: 0.65(0.28) ng/mL
fasting c-peptide, Median [1]: 0.61 ng/mL
FPG change from baseline, LS mean (SE) (week 18): −33.44(1.60) mg/dL
HOMA-IR change from baseline, LS mean (SE) (week 18): −1.79(0.11)
HOMA-β change from baseline, LS mean (SE) (week 18): 10.97(3.06)
HbA1c change from baseline, LS mean (SE) (week 18): −0.74(0.06) % p
LDL-C change from baseline, LS mean (SE) (week 18): 1.42(1.86) mg/dL
Subjects achieving HbA1c target of <7% (week 18): (62.64) %
Subjects achieving HbA1c<6.5% (week 18): 9.89%
Subjects achieving therapeutic response (HbA1c change >0.5% or HbA1c<7%) (week 18): 80.22%
UACR change from baseline, LS mean (SE) (week 18): −23.05(5.06) g/kg
diastolic blood pressure change from baseline, LS mean (SE) (week 18): −4.80(0.78) mmHg
fasting c-peptide change from baseline, LS mean (SE) (week 18): −0.07(0.18) ng/ml
leptin change from baseline, LS mean (SE) (week 18): −2.49(0.52) ng/mL
systolic blood pressure change from baseline, LS mean (SE) (week 18): -6.69 mmHg
FPG change from baseline, LS mean difference (week 18, vs dapagliflozin): -2.31 mg/dL
HDL-C change from baseline, LS mean difference (week 18, vs dapagliflozin): -0.62 mg/dL
HOMA-IR change from baseline, LS mean difference (week 18, vs dapagliflozin): −0.32
HOMA-β change from baseline, LS mean difference (week 18, vs dapagliflozin): −2.53
HbA1c change from baseline, LS mean difference (week 18, vs dapagliflozin): −0.05 % p
LDL-C change from baseline, LS mean difference (week 18, vs dapagliflozin): -1.15 mg/dL
Odds ratio for achieving HbA1c<6.5% (week 18, vs dapagliflozin): 0.31
Odds ratio for achieving HbA1c<7% (week 18, vs dapagliflozin): 1.29
Odds ratio for achieving therapeutic response (week 18, vs dapagliflozin): 1.58
UACR change from baseline, LS mean difference (week 18, vs dapagliflozin): −10.10
UGCR change from baseline, LS mean difference (week 18, vs dapagliflozin): 18.25 mg/mg
body weight change from baseline, LS mean difference (week 18, vs dapagliflozin): 0.02 kg
diastolic blood pressure change from baseline, LS mean difference (week 18, vs dapagliflozin): −0.70 mmHg
fasting c-peptide change from baseline, LS mean difference (week 18, vs dapagliflozin): -0.02 ng/mL
leptin change from baseline, LS mean difference (week 18, vs dapagliflozin): -1.26 ng/mL
systolic blood pressure change from baseline, LS mean difference (week 18, vs dapagliflozin): −0.72 mmHg
total cholesterol change from baseline, LS mean difference (week 18, vs dapagliflozin): -1.77 mg/dL
triglyceride change from baseline, LS mean difference (week 18, vs dapagliflozin): -6.87 mg/dL
Subjects achieving HbA1c target of <7% [2]: 62.64%
UGCR change from baseline, LS mean (SE) [2]: 60.97(2.13) mg/mg and 42.72(2.15) mg/mg
Change from baseline in total cholesterol, ANCOVA LS mean difference (week 18, modified per-protocol set 1, enavogliflozin 0.3 mg vs dapagliflozin 10 mg): -1.77 mg/dL
Change from baseline in Total cholesterol, ANCOVA LS mean (SE) [3]: 7.80(2.16) mg/dL
Change from baseline in Total cholesterol, Mean (SD) [3]: 6.23(16.54) mg/dL
Change from baseline in total cholesterol, Median [3]: 6.00 mg/dL
fasting Total cholesterol, Mean (SD) [3]: 156.99(32.54) mg/dL
fasting Total cholesterol, Median [3]: 149.00 mg/dL
Change from baseline in FPG, ANCOVA LS mean difference [4]: -2.31 mg/dL
Change from baseline in HbA1c, ANCOVA LS mean difference [4]: −0.05 % p
Change from baseline in body weight, ANCOVA LS mean difference [4]: 0.02 kg
Change from baseline in fasting c-peptide, ANCOVA LS mean difference [4]: -0.02 ng/mL
Odds ratio for achieving HbA1c target of <6.5%, logistic regression model [4]: 0.31
Odds ratio for achieving therapeutic glycemic response, logistic regression model [4]: 1.58
Change from baseline in FPG, ANCOVA LS mean (SE) [5]: -33.44 mg/dL
Change from baseline in FPG, Mean (SD) [5]: -31.78 mg/dL
Change from baseline in FPG, Median [5]: -31.00 mg/dL
Change from baseline in HbA1c, ANCOVA LS mean (SE) [5]: −0.74 % p
Change from baseline in HbA1c, Mean (SD) [5]: −0.71 % p
Change from baseline in HbA1c, Median [5]: −0.56 % p
Change from baseline in body weight, ANCOVA LS mean (SE) [5]: −3.14(0.26) kg
Change from baseline in body weight, Mean (SD) [5]: −3.17(2.68) kg
Change from baseline in body weight, Median [5]: -3.20 kg
Change from baseline in fasting c-peptide, ANCOVA LS mean (SE) [5]: −0.08(0.02) ng/mL
Change from baseline in fasting c-peptide, Mean (SD) [5]: −0.07(0.18) ng/mL
Change from baseline in fasting c-peptide, Median [5]: -0.07 ng/mL
FPG, Mean (SD) [5]: 112.95 mg/dL
FPG, Median [5]: 113.00 mg/dL
HbA1c, Mean (SD) [5]: 7.02%
HbA1c, Median [5]: 6.89%
